# Legend:
# [1] = test system: Hsp70s expressed in the MRC-5 cells; assay: Hsp70 competition assay using YK55 beads, MRC-5 extracts; format: binding, human; settings: MRC-5 normal cell extracts
# Protocol: FIG. 14. YK5 has a higher affinity for tumor Hsp70s and selectively kills cancer cells. (a-c) Cells were treated with the indicated concentrations of inhibitors for the times presented, and metabolically viable cells by Alamar blue uptake as described in Methods (a). Molecular markers of apoptosis (PARP and caspase-3 cleavage) were analyzed in cells treated for 24 h with indicated concentrations of inhibitors, by western blotting (b, c). Morphology of cells treated for 24 h with vehicle or the indicated inhibitors was analyzed by light microscopy (c). (d) Extracts (500 μg) were incubated overnight with beads containing D-biotin (75 μM) or the indicated concentrations of YK55 added to 50 μl streptavidin beads. HS=heat shocked. (e) SKBr3 (200 μg) and MRC-5 (400 μg) extracts and recombinant human Hsp70 (2 μg) were incubated for 3 h with the indicated concentrations with YK5, followed by precipitation of Hsp70 complexes on YK55-beads (50 μM YK55 added to 50 μl streptavidin beads). Data obtained from three independent experiments were graphed (right). Points, mean; bars, s.d.
# In a second experiment, the ability of soluble YK5 to compete YK55-binding to normal and cancer cell Hsp70 species were tested (FIG. 14e). […] Interaction of YK5 was even weaker with recombinant human Hsp70 (FIG. 14e).
# Hsp70 Competition Assay Using the YK55 Beads. […]
# [2] = molecular target: T1, Human Hsc70 (Homo sapiens, UniProt P11142); assay: Hsc70 ATPase activity; format: biochemical; settings: 100 μM, Hsc70 with co-chaperones, 30° C.
# T1 construct: made in house
# Protocol: FIG. 6. YK5 inhibits core biochemical functions of Hsp70s and disrupts the Hsp90/Hsp70 interaction. a) Refolding of denatured luciferase by Hsc70 and DJA2 at 30° C. was measured for the indicated times in the presence of YK5 (100 μM) or vehicle (left), or at 60 min in the presence of indicated concentrations of YK5 (right). b) Hsc70 ATPase rates were measured for reactions at 30° C. with the indicated combinations of Hsc70 and co-chaperones in the presence of vehicle (DMSO) or YK5 (100 μM). ADP production was monitored by thin layer chromatography separation of radiolabeled ADP from ATP and phosphorimaging analysis (lower). […] Proteins isolated with anti-Hsp90 and Hsp70s antibodies (IP: Hsp90 or Hsp70), or present in the cell extract (Lysate) were analyzed by WB. […] Proteins were applied to a native gel and analyzed by immunoblotting. […]
# Hsc70 ATPase Activity and Luciferase Refolding. Human Hsc70, DJA1/DNAJA1, DJA2/DNAJA2 and Hsp110/Hsp105/HSPH1 were purified and analyzed. […] Samples at time points were terminated with 37.5 mM EDTA and analyzed by thin layer chromatography on polyethylene-imine cellulose (Mallinckrodt Baker) developed in 0.5 M LiCl and 0.5 M formic acid. The ADP produced was determined by image phosphor quantitation and the linear enzymatic rates (Vmax) were calculated by regression analysis. […]
# [3] = test system: MDA-MB-468, SKBr3, LNCaP, MOLM-13, Kasumi-1, OCI-Ly7 and HuH7 cells; assay: Growth inhibition in a panel of cancer cells; format: cell-based, human; settings: growth over 72 h
# Protocol: Tested were MDA-MB-468 triple-negative breast cancer cells, SKBr3 HER2+breast cancer cells, LNCaP mAR+prostate cancer cells, MOLM-13 and Kasumi-1 acute myeloid leukemia cells, OCI-Ly7 diffuse large B-cell lymphoma cells and HuH7 hepatocellular carcinoma cells. […] In cancer cells, half growth inhibitory concentrations ([…]) recorded for YK5 were in high agreement with its potency to degrade Hsp90 onco-clients.
# Growth Inhibition Assay. Antiproliferative effects of inhibitors were evaluated using the dye Alamar blue. This reagent offers a rapid objective measure of cell viability in cell culture, and it uses the indicator dye resazurin to measure the metabolic capacity of cells, an indicator of cell viability. Briefly, cells were plated on Costar 96-well plates. For attached cells (such as SKBr3, MDA-MB-468, LNCaP, MRCS), 8,000 cells/well were used. For suspension cells (such as MOLM-13, Kasumi-1, OCI-Ly7, PBL), 20,000 cells/well were plated. Cells were allowed to incubate for 24 h at 37° C. before drug treatment. Drugs were added in triplicates at the indicated concentrations, and the plate was incubated for 72 h. Alamar Blue (440 μM) was added, and the plate read 6 h later using the Analyst GT (Fluorescence intensity mode, excitation 530 nm, emission 580 nm, with 560=dichroic mirror). Results were analyzed using the Softmax Pro software. The percentage cell growth inhibition was calculated by comparing fluorescence readings obtained from treated versus control cells, accounting for initial cell population (time zero).
# T1 sequence (P11142 whole entry): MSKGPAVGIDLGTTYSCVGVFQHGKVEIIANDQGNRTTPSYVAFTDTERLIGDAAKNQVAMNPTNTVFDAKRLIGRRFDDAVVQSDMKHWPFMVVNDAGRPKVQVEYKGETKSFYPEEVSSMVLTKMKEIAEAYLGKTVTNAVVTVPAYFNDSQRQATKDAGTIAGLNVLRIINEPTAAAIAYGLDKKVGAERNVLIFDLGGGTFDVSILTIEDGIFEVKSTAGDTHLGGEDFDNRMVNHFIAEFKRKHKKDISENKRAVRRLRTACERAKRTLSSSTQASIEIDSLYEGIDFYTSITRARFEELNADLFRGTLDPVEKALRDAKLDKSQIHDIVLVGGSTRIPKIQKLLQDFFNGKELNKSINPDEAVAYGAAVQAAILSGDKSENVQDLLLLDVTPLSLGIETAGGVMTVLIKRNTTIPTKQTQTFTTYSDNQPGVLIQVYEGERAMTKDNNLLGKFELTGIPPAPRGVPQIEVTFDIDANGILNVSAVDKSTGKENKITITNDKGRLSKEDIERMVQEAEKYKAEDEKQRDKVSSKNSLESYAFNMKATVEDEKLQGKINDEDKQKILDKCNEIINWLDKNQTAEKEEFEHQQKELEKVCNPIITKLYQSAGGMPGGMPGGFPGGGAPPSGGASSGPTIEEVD
compound,measurement,setting,value
"C=CC(=O)Nc1cc(N)nc(Sc2c(OC)nc(N3CCN(C)CC3)nc2OC)n1 [YK5, N-(6-amino-2-(4,6-dimethoxy-2-(4-methylpiperazin-1-yl)pyrimidin-5-ylthio)pyrimidin-4-yl)acrylamide]",concentration necessary to observe displacement of Hsp70s from YK55-beads,[1],exceeded 200 μM
same,stimulated ATPase rate of Hsc70,[2],partially inhibited the stimulated ATPase rate of Hsc70
same,growth of all tested cancer cells,[3],inhibited the growth of all tested cancer cells
